Results reported in ChEMBL document CHEMBL1150716, “Cytotoxic flavonols from Gutierrezia microcephala” (1987).
≈ marks a conversion by molar mass, not a printed value.

Test system: P388
Assay: Cytotoxicity against mouse P388 cells
Assay type: functional
Conditions: read-out: ED50 (the source's name)

Compound	EC50 [µg/mL]
COc1cc(O)c2c(=O)c(OC)c(-c3ccc(O)c(O)c3)oc2c1	3.2 (≈ 9.69 µM)
COc1cc(-c2oc3cc(O)cc(O)c3c(=O)c2OC)ccc1O [3,3'-O-DIMETHYLQUERCETIN]	1.7 (≈ 5.15 µM)
